{
  "source": "patent US20230066474A1",
  "about": "“LYSOSOME-TARGETING ANTIBODY-DRUG CONJUGATE AND USE THEREOF” (Sun Yat-Sen University, priority 2019, published 2023)",
  "system": "A431 cells",
  "assay": "2D tumor cell model cytotoxicity, Cell Counting Kit-8 (CCK-8)",
  "assay_type": "cell-based, human",
  "details": "treated 96 h, CCK-8 viability, mean±SEM (n=3)",
  "note": "Where a SMILES comes first, the peptide text is derived from it. [ ]: non-standard residue; d: D form. Dolaproine = CO[C@@H]([C@@H]1CCCN1)[C@@H](C)C(=O)O; Dil = CC[C@H](C)[C@H](NC)[C@@H](CC(=O)O)OC; NMeV = CN[C@H](C(=O)O)C(C)C",
  "procedure": "2D tumor cell model was used, where ADCs of varying concentrations were added to a 96-well plate seeded with A431 cells and treated for 96 h. The cell viability was examined using Cell Counting Kit-8 (CCK-8).",
  "data": [
    {"molecule": "CC[C@H](C)[C@@H]([C@@H](CC(=O)N1CCC[C@H]1[C@H](OC)[C@@H](C)C(=O)N[C@@H](Cc1ccccc1)C(=O)O)OC)N(C)C(=O)[C@@H](NC(=O)[C@@H](NC)C(C)C)C(C)C", "note": "[MMAF, monomethylaurethatin F] (H-[NMeV]V[Dil][Dolaproine]F-OH)", "values": [
      {"measurement": "EC50", "result": "955 ± 289", "unit": "nM"}
    ]}
  ]
}
